# Reference: the supplement of paper PMC10733146
# Legend:
# Assay in all cases: viability relative to DMSO control (fraction); higher = less drug effect (more viable cells)
# Details in all cases: 48 h
# [1] = system: primary AML patient cells (S012)
# Procedure, shortened: (§1)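 The cells were primary mononuclear tumour cells, either fresh or cryopreserved, isolated by Ficoll from blood or bone marrow or derived from processed lymph node. Each well of a 384-well plate received 4 × 10^4 cells onto compounds pre-plated at five concentrations, with one well per concentration. The medium was RPMI-1640 with penicillin/streptomycin, L-glutamine and human serum, and plates stood at 37 °C and 5% CO2 for 48 h. Viability is reported as CellTiter-Glo luminescence relative to the median of 16 inner DMSO wells.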
# [2] = system: primary AML patient cells (S056)
# Procedure, shortened: as §1
# [3] = system: primary AML patient cells (S072)
# Procedure, shortened: as §1
# [4] = system: primary AML patient cells (S025)
# Procedure, shortened: as §1
# [5] = system: primary AML patient cells (S009)
# Procedure, shortened: as §1
# [6] = system: primary MCL patient cells (S063)
# Procedure, shortened: as §1
# [7] = system: primary AML patient cells (S079)
# Procedure, shortened: as §1
# [8] = system: primary T-PLL patient cells (S008)
# Procedure, shortened: as §1
# [9] = system: primary MCL patient cells (S053)
# Procedure, shortened: as §1
# [10] = system: primary FL patient cells (S022)
# Procedure, shortened: as §1
# [11] = system: primary CLL patient cells (S043)
# Procedure, shortened: as §1
# [12] = system: primary ALL patient cells (S048)
# Procedure, shortened: as §1
# [13] = system: primary AML patient cells (S081)
# Procedure, shortened: as §1
# [14] = system: primary AML patient cells (S021)
# Procedure, shortened: as §1
# [15] = system: primary AML patient cells (S017)
# Procedure, shortened: as §1
# [16] = system: primary AML patient cells (S002)
# Procedure, shortened: as §1
# [17] = system: primary BL patient cells (S005)
# Procedure, shortened: as §1
# [18] = system: primary MCL patient cells (S068)
# Procedure, shortened: as §1
# [19] = system: primary AML patient cells (S006)
# Procedure, shortened: as §1
structure (smiles),measurement,setting,value
CCN1CCN(Cc2ccc(Nc3ncc(F)c(-c4cc(F)c5nc(C)n(C(C)C)c5c4)n3)nc2)CC1,viability,[1]; 0.024 µM,1.11
same,viability,[1]; 0.12 µM,1.04
same,viability,[1]; 0.6 µM,1.07
same,viability,[1]; 3 µM,0.986
same,viability,[1]; 15 µM,0.902
same,viability,[2]; 0.024 µM,0.703
same,viability,[2]; 0.12 µM,0.546
same,viability,[2]; 0.6 µM,0.444
same,viability,[2]; 3 µM,0.136
same,viability,[2]; 15 µM,0.0316
same,viability,[3]; 0.024 µM,0.893
same,viability,[3]; 0.12 µM,1.03
same,viability,[3]; 0.6 µM,0.73
same,viability,[3]; 3 µM,0.251
same,viability,[3]; 15 µM,0.0132
same,viability,[4]; 0.024 µM,1.11
same,viability,[4]; 0.12 µM,1.02
same,viability,[4]; 0.6 µM,1.1
same,viability,[4]; 3 µM,0.372
same,viability,[4]; 15 µM,0.0187
same,viability,[5]; 0.024 µM,1.05
same,viability,[5]; 0.12 µM,0.955
same,viability,[5]; 0.6 µM,1.03
same,viability,[5]; 3 µM,0.451
same,viability,[5]; 15 µM,0.0338
same,viability,[6]; 0.024 µM,1.08
same,viability,[6]; 0.12 µM,0.99
same,viability,[6]; 0.6 µM,0.951
same,viability,[6]; 3 µM,0.605
same,viability,[6]; 15 µM,0.00904
same,viability,[7]; 0.024 µM,0.969
same,viability,[7]; 0.12 µM,1.07
same,viability,[7]; 0.6 µM,1.03
same,viability,[7]; 3 µM,0.598
same,viability,[7]; 15 µM,0.0143
same,viability,[8]; 0.024 µM,1.04
same,viability,[8]; 0.12 µM,0.981
same,viability,[8]; 0.6 µM,1.08
same,viability,[8]; 3 µM,0.415
same,viability,[8]; 15 µM,0.0352
same,viability,[9]; 0.024 µM,0.896
same,viability,[9]; 0.12 µM,0.737
same,viability,[9]; 0.6 µM,0.565
same,viability,[9]; 3 µM,0.144
same,viability,[9]; 15 µM,0.0105
same,viability,[10]; 0.024 µM,1.12
same,viability,[10]; 0.12 µM,1.01
same,viability,[10]; 0.6 µM,1.06
same,viability,[10]; 3 µM,0.616
same,viability,[10]; 15 µM,0.00982
same,viability,[11]; 0.024 µM,0.893
same,viability,[11]; 0.12 µM,1.05
same,viability,[11]; 0.6 µM,0.936
same,viability,[11]; 3 µM,0.58
same,viability,[11]; 15 µM,0.24
same,viability,[12]; 0.024 µM,0.546
same,viability,[12]; 0.12 µM,0.443
same,viability,[12]; 0.6 µM,0.263
same,viability,[12]; 3 µM,0.0396
same,viability,[12]; 15 µM,0.00487
same,viability,[13]; 0.024 µM,0.929
same,viability,[13]; 0.12 µM,0.868
same,viability,[13]; 0.6 µM,0.833
same,viability,[13]; 3 µM,0.537
same,viability,[13]; 15 µM,0.174
same,viability,[14]; 0.024 µM,1.01
same,viability,[14]; 0.12 µM,0.962
same,viability,[14]; 0.6 µM,1.22
same,viability,[14]; 3 µM,0.377
same,viability,[14]; 15 µM,0.0751
same,viability,[15]; 0.024 µM,1.01
same,viability,[15]; 0.12 µM,1.14
same,viability,[15]; 0.6 µM,1.1
same,viability,[15]; 3 µM,0.73
same,viability,[15]; 15 µM,0.179
same,viability,[16]; 0.024 µM,0.84
same,viability,[16]; 0.12 µM,0.894
same,viability,[16]; 0.6 µM,0.884
same,viability,[16]; 3 µM,0.363
same,viability,[16]; 15 µM,0.139
same,viability,[17]; 0.024 µM,1.01
same,viability,[17]; 0.12 µM,1.61
same,viability,[17]; 0.6 µM,0.924
same,viability,[17]; 3 µM,0.725
same,viability,[17]; 15 µM,0.374
same,viability,[18]; 0.024 µM,0.836
same,viability,[18]; 0.12 µM,0.934
same,viability,[18]; 0.6 µM,1.09
same,viability,[18]; 3 µM,0.0754
same,viability,[18]; 15 µM,0.0119
CC#CC(=O)N1CCC[C@H]1c1nc(-c2ccc(C(=O)Nc3ccccn3)cc2)c2c(N)nccn12 [Acalabrutinib (ACP-196)],viability,[19]; 0.008 µM,1.08
same,viability,[19]; 0.04 µM,1.1
same,viability,[19]; 0.2 µM,1.09
same,viability,[19]; 1 µM,1.08
same,viability,[19]; 5 µM,1.04
same,viability,[1]; 0.008 µM,1.08
same,viability,[1]; 0.04 µM,1.16
same,viability,[1]; 0.2 µM,1.14
same,viability,[1]; 1 µM,1.16
same,viability,[1]; 5 µM,1.21
same,viability,[2]; 0.008 µM,1.04
same,viability,[2]; 0.04 µM,1.55
same,viability,[2]; 0.2 µM,1.02
same,viability,[2]; 1 µM,0.929
same,viability,[2]; 5 µM,0.766
same,viability,[3]; 0.008 µM,0.995
same,viability,[3]; 0.04 µM,0.971
same,viability,[3]; 0.2 µM,0.989
same,viability,[3]; 1 µM,0.941
same,viability,[3]; 5 µM,0.971
same,viability,[4]; 0.008 µM,1.06
same,viability,[4]; 0.04 µM,1.26
same,viability,[4]; 0.2 µM,1.04
same,viability,[4]; 1 µM,1.05
same,viability,[4]; 5 µM,1.05
same,viability,[5]; 0.008 µM,1.19
same,viability,[5]; 0.04 µM,1.11
same,viability,[5]; 0.2 µM,1.16
same,viability,[5]; 1 µM,1.09
same,viability,[5]; 5 µM,1.12
same,viability,[6]; 0.008 µM,0.697
same,viability,[6]; 0.04 µM,0.328
same,viability,[6]; 0.2 µM,0.276
same,viability,[6]; 1 µM,0.246
same,viability,[6]; 5 µM,0.262
same,viability,[7]; 0.008 µM,0.948
same,viability,[7]; 0.04 µM,0.906
same,viability,[7]; 0.2 µM,0.859
same,viability,[7]; 1 µM,1.11
same,viability,[7]; 5 µM,0.965
same,viability,[8]; 0.008 µM,1.11
same,viability,[8]; 0.04 µM,1.01
same,viability,[8]; 0.2 µM,1.08
same,viability,[8]; 1 µM,0.989
same,viability,[8]; 5 µM,1.13
same,viability,[9]; 0.008 µM,0.711
same,viability,[9]; 0.04 µM,0.636
same,viability,[9]; 0.2 µM,0.656
same,viability,[9]; 1 µM,0.587
same,viability,[9]; 5 µM,0.66
same,viability,[10]; 0.008 µM,1.1
same,viability,[10]; 0.04 µM,1.12
same,viability,[10]; 0.2 µM,1.11
same,viability,[10]; 1 µM,1.09
same,viability,[10]; 5 µM,1.05
same,viability,[11]; 0.008 µM,0.794
same,viability,[11]; 0.04 µM,0.768
same,viability,[11]; 0.2 µM,0.73
same,viability,[11]; 1 µM,0.701
same,viability,[11]; 5 µM,0.72
same,viability,[12]; 0.008 µM,1.05
same,viability,[12]; 0.04 µM,0.955
same,viability,[12]; 0.2 µM,0.975
same,viability,[12]; 1 µM,0.962
same,viability,[12]; 5 µM,1.03
same,viability,[13]; 0.008 µM,1.01
same,viability,[13]; 0.04 µM,1.05
same,viability,[13]; 0.2 µM,0.985
same,viability,[13]; 1 µM,1.02
same,viability,[13]; 5 µM,1.02
same,viability,[14]; 0.008 µM,1.13
same,viability,[14]; 0.04 µM,1.05
same,viability,[14]; 0.2 µM,1.13
same,viability,[14]; 1 µM,1.1
same,viability,[14]; 5 µM,1.03
same,viability,[15]; 0.008 µM,1.32
same,viability,[15]; 0.04 µM,1.1
same,viability,[15]; 0.2 µM,1.15
same,viability,[15]; 1 µM,1.36
same,viability,[15]; 5 µM,0.997
same,viability,[16]; 0.008 µM,0.98
same,viability,[16]; 0.04 µM,1.15
same,viability,[16]; 0.2 µM,1.03
same,viability,[16]; 1 µM,0.952
same,viability,[16]; 5 µM,1.04
same,viability,[17]; 0.008 µM,1.07
same,viability,[17]; 0.04 µM,1.15
same,viability,[17]; 0.2 µM,1.05
same,viability,[17]; 1 µM,1.17
same,viability,[17]; 5 µM,1.08
same,viability,[18]; 0.008 µM,0.878
same,viability,[18]; 0.04 µM,0.805
same,viability,[18]; 0.2 µM,0.788
same,viability,[18]; 1 µM,0.767
same,viability,[18]; 5 µM,0.785
